Legend:
[1] = test system: Nephotettix cincticeps; experiment: Insecticidal activity against 1 to 3 day-old adult Nephotettix cincticeps (green rice leafhopper) infested in compound-treated rice seedlings assessed as mortality measured after 3 days; type: functional
[2] = test system: Laodelphax striatellus; experiment: Insecticidal activity against 1 to 3 day-old adult Laodelphax striatella (small brown planthopper) infested compound-treated rice seedlings assessed as mortality measured after 3 days; type: functional

| SMILES | LC70 [1] [ppm] | LC70 [2] [ppm] |
| --- | --- | --- |
| CS/C(=N\[N+](=O)[O-])NCC1CCOC1 (centres undefined) | 10 | 10 |
| O=[N+]([O-])/N=C1\NCCN1CC1CCOC1 (racemic) | 1 | 10 |
| N/C(=N\[N+](=O)[O-])NCC1CCOC1 (racemic) | 100 | >1000 |
| CN/C(=C\[N+](=O)[O-])NCC1CCOC1 (racemic) | 0.1 | 0.1 |
| CCN/C(=N\[N+](=O)[O-])NCC1CCOC1 (racemic) | 10 | 100 |
| CN(C)/C(=N\[N+](=O)[O-])N(C)CC1CCOC1 (racemic) | 10 | 10 |
| CN/C(=N\[N+](=O)[O-])N(C)CC1CCOC1 (racemic) | 1 | 1 |
| CN(C(=O)c1ccccc1)/C(=N\[N+](=O)[O-])N(CC1CCOC1)C(=O)c1ccccc1 (racemic) | 0.1 | 1 |
| CC(=O)N(C)/C(=N\[N+](=O)[O-])N(CC1CCOC1)C(C)=O (racemic) | 0.1 | 0.1 |
| CCN(CC1CCOC1)/C(=C/[N+](=O)[O-])NC (racemic) | 10 | 1 |
| CC(=O)N1CCCN(CC2CCOC2)/C1=N\[N+](=O)[O-] (racemic) | 0.1 | 10 |
| O=C(c1ccccc1)N1CCCN(CC2CCOC2)/C1=N\[N+](=O)[O-] (racemic) | 0.1 | 10 |
| CS/C(=C\[N+](=O)[O-])NCC1CCOC1 (racemic) | >1000 | >1000 |
| CS/C(=C\[N+](=O)[O-])N(C)CC1CCOC1 (racemic) | >1000 | >1000 |
| CS/C(=N\[N+](=O)[O-])N(C)CC1CCOC1 (racemic) | >1000 | >1000 |
| CCN/C(=C\[N+](=O)[O-])NCC1CCOC1 (racemic) | 10 | 10 |
| CCCN/C(=C\[N+](=O)[O-])NCC1CCOC1 (racemic) | 100 | 100 |
| C#CCN/C(=C\[N+](=O)[O-])NCC1CCOC1 (racemic) | >1000 | >1000 |
| CN/C(=C\[N+](=O)[O-])N(C)CC1CCOC1 (racemic) | 1 | 1 |
| CCCN(CC1CCOC1)/C(=C/[N+](=O)[O-])NC (racemic) | 10 | 10 |
| CN(C)/C(=C\[N+](=O)[O-])NCC1CCOC1 (racemic) | 1 | 0.1 |

| SMILES | LC70 [1] [ppm] | LC70 [2] [ppm] |
| --- | --- | --- |
| CN(C)/C(=C\[N+](=O)[O-])N(C)CC1CCOC1 (racemic) | 10 | 1 |
| O=[N+]([O-])/N=C(\NCc1ccccc1)NCC1CCOC1 (racemic) | >1000 | >1000 |
| CCN(CC1CCOC1)/C(=N/[N+](=O)[O-])NC (racemic) | 10 | 10 |
| CN(C)/C(=N\[N+](=O)[O-])NCC1CCOC1 (racemic) | 0.1 | 1 |
| CCN(C)/C(=N\[N+](=O)[O-])NCC1CCOC1 (racemic) | 10 | 10 |
| CCN(C(C)=O)/C(=N\[N+](=O)[O-])N(CC1CCOC1)C(C)=O (racemic) | 10 | 10 |
| COC(=O)N(C)/C(=N\[N+](=O)[O-])N(CC1CCOC1)C(=O)OC (racemic) | 0.1 | 1 |
| CN(Cc1ccccc1)/C(=N\[N+](=O)[O-])N(Cc1ccccc1)CC1CCOC1 (racemic) | 10 | 10 |
| COC(=O)N(CC1CCOC1)/C(=N/[N+](=O)[O-])N(C)C(C)=O (racemic) | 0.1 | 1 |
| COC(=O)N(CC1CCOC1)/C(=N/[N+](=O)[O-])N(C)Cc1ccccc1 (racemic) | 0.1 | 1 |
| CC(=O)N/C(=N\[N+](=O)[O-])NCC1CCOC1 (racemic) | >1000 | >1000 |
| O=C(N/C(=N\[N+](=O)[O-])NCC1CCOC1)c1ccccc1 (racemic) | >1000 | >1000 |
| COC(=O)N/C(=N\[N+](=O)[O-])NCC1CCOC1 (racemic) | 10 | >1000 |
| O=[N+]([O-])/C=C1\NCCN1CC1CCOC1 (racemic) | 0.1 | 10 |
| O=[N+]([O-])/C=C1\NCCCN1CC1CCOC1 (racemic) | 0.1 | 1 |
| O=[N+]([O-])/C=C1\NCCCCN1CC1CCOC1 (racemic) | 1 | 10 |
| O=[N+]([O-])/N=C1\NCCCN1CC1CCOC1 (racemic) | 0.1 | 1 |
| O=[N+]([O-])/N=C1\NCCCCN1CC1CCOC1 (racemic) | 10 | 100 |
| CN1CCCN(CC2CCOC2)/C1=C/[N+](=O)[O-] (racemic) | 10 | 10 |
| CN1CCCN(CC2CCOC2)/C1=N/[N+](=O)[O-] (racemic) | 10 | 100 |
| CN/C(=N/CC1CCOC1)N[N+](=O)[O-] (centres undefined) [DINOTEFURAN] | 0.1 | 0.1 |

Source: ChEMBL document CHEMBL3046631, “Synthesis and Structure-Activity Relationships of Dinotefuran Derivatives: Modification in the Nitroguanidine Part” (2004)
